Measurements reported in publication PMC9000735, “In Vitro Alpha-Glucosidase Inhibitory Activity and the Isolation of Luteolin from the Flower of Gymnanthemum amygdalinum (Delile) Sch. Bip ex Walp” (Molecules, 2022).
Read-outs that look alike come from different tables or passages of the source.

What was measured:
[1] = target: T1, α-glucosidase (Saccharomyces cerevisiae, UniProt P53341); assay: biochemical; conditions: for IC50: mean ± SD, n = 3, linear regression
T1 construct: purchased Sigma-Aldrich G5003
Method: A specific spray reagent, citroborate (5 g citric acid, 5 g boric acid, and 100 mL ethanol), and 10% (v/v) H2SO4 in a MeOH solution were used to identify flavonoids and other compounds. Additionally, during extraction and separation, the entire solvents were distilled before use, making them of technical grade.
Alpha-glucosidase inhibition was assessed using the adopted method with slight modifications. Phosphate buffer solution (36 μL), a sample solution with different concentrations ([…]), and pNPG substrate with 6 mM concentration (17 μL) were successively added to 96 microplate wells. The incubation of this mixture was performed at 37 °C for 5 min. In each well, 17 μL of alpha-glucosidase solution at 0.2 U/mL was added to obtain a total volume of […], which was followed by incubation at 37 °C for 15 min. Furthermore, the initial reaction was brought to completion by the addition of Na2CO3 solution (100 μL) at 200 mM. […] Percentage inhibition was used to express the inhibitory activity of alpha-glucosidase, while the calculation followed the formula below:
Inhibition percentage (%) = (B1–B2)/B1 × 100%.
B1 = Blank absorbance * − control of blank absorbance **
B2 = Sample absorbance − control of sample absorbance ***
The IC50 was calculated using a linear regression equation (y = a + bx) in which the sample concentration was represented on the x-axis and the percentage inhibition was represented on the y-axis.

[2] = test system: alpha-glucosidase; design: method as in PMID 35215317; conditions: cited from earlier work

T1 sequence (P53341 whole entry): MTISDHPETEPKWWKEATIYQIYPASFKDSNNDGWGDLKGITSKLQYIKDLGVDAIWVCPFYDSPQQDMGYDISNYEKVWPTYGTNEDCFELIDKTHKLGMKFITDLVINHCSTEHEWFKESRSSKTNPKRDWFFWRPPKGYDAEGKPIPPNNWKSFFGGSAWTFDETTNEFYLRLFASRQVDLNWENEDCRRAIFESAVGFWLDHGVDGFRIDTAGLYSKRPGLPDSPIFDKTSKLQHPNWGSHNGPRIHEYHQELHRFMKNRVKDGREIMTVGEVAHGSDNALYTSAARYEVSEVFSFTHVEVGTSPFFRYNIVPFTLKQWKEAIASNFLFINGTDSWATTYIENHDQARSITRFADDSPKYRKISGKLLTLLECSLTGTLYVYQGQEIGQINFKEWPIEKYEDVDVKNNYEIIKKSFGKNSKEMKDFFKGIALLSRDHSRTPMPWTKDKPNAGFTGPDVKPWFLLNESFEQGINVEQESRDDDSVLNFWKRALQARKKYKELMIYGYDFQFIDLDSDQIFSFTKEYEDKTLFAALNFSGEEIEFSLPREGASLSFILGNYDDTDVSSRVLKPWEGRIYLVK

Compound	IC50 [1] [µM]	inhibition at 100 µg/mL [1] [%]	inhibition at 200 µg/mL [1] [%]	inhibition at 100 µg/mL ([1]; read-out: Inhibition (in %)) [%]	inhibition at 200 µg/mL ([1]; read-out: Inhibition (in %)) [%]	inhibition mechanism type [2]
COc1c(-c2ccc(O)c(O)c2)oc2cc(O)cc(O)c2c1=O [Compound 2, 2-(3,4-dihydroxyphenyl)-5,7-dihydroxy-3-methoxy-4H-chromen-4-one]	126					
C[C@H]1O[C@H](O[C@H]2[C@H](O)[C@@H](O)[C@@H](O[C@H]3[C@H](O)[C@@H](O)C(O)O[C@@H]3CO)O[C@@H]2CO)[C@H](O)[C@@H](O)[C@@H]1N[C@H]1C=C(CO)[C@@H](O)[C@H](O)[C@H]1O (stereo partly shown) [Acarbose, acarbose]		42.13 ± 0.12	66 ± 1.11	43.1 ± 0.92	66.8 ± 2.11	
O=c1cc(-c2ccc(O)c(O)c2)oc2cc(O)cc(O)c12 [Compound 1, 2-(3,4-dihydroxyphenyl)-5,7-dihydroxy-4H-chromen-4-one]	22.8					non-competitive
